Measured values taken from ChEMBL document CHEMBL3826960, “Robust design of some selective matrix metalloproteinase-2 inhibitors over matrix metalloproteinase-9 through in silico/fragment-based lead identification and de novo lead modification: Syntheses and biological assays” (Bioorg Med Chem, 2016).

Tests used:
[1] = target: Matrix metalloproteinase-9 (Homo sapiens, UniProt P14780)
Description: Inhibition of human recombinant MMP9 by colorimetric analysis

[2] = test system: A549; assay: cells; assay type: functional; settings: Homo sapiens, A549, 24 h
Description: Reduction of MMP2 expression in human A549 cells at 50 uM after 24 hrs by confocal microsocopy

[3] = target: T1, Interstitial collagenase (Homo sapiens, UniProt P03956)
T1 sequence (P03956 whole entry): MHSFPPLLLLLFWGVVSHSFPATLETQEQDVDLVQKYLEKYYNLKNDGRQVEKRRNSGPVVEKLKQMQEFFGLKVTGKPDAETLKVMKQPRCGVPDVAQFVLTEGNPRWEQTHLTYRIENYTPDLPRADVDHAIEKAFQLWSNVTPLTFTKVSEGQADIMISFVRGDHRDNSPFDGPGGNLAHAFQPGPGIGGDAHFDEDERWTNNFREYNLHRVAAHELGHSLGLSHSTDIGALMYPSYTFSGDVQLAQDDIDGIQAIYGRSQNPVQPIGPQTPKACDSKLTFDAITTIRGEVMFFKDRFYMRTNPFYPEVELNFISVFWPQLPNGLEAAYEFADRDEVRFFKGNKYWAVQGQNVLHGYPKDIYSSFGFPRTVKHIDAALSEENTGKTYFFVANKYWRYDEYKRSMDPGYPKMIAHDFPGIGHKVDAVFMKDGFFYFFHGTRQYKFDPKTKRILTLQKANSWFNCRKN
Description: Inhibition of human recombinant MMP1 by colorimetric analysis

[4] = target: Macrophage metalloelastase (Homo sapiens, UniProt P39900)
Sequence of Macrophage metalloelastase (P39900 whole entry): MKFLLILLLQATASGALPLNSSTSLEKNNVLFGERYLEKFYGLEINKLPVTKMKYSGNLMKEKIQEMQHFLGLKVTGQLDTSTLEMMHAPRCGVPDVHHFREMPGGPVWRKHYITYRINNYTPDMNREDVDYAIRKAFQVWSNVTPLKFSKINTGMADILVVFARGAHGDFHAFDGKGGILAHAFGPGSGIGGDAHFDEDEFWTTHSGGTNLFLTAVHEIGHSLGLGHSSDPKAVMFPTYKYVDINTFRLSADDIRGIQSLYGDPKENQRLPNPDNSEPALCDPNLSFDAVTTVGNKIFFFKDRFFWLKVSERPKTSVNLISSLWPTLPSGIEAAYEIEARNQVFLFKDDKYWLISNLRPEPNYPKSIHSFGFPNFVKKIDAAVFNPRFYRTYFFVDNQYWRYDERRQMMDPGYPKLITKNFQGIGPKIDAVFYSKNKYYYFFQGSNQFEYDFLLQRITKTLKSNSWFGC
Description: Inhibition of human recombinant MMP12 by colorimetric analysis

[5] = target: Neutrophil collagenase (Homo sapiens, UniProt P22894)
Sequence of Neutrophil collagenase (P22894 whole entry): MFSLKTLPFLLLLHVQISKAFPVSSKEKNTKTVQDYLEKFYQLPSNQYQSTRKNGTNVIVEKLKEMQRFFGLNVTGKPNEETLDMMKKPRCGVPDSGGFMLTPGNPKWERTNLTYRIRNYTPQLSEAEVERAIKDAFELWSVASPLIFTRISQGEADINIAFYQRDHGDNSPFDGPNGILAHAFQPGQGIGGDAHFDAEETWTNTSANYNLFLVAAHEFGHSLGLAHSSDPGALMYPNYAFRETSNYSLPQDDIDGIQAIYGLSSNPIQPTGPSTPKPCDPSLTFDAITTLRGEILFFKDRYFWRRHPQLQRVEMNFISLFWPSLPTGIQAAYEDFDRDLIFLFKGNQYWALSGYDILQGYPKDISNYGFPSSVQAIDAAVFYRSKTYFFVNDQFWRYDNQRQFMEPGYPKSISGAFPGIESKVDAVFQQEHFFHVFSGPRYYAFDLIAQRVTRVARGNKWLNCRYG
Description: Inhibition of human recombinant MMP8 by colorimetric analysis

[6] = target: Matrix metalloproteinase-14 (Homo sapiens, UniProt P50281)
Description: Inhibition of human recombinant MMP14 by colorimetric analysis

[7] = test system: A549; assay: cells; assay type: functional; settings: Homo sapiens, A549, 48 h
Description: Cytotoxicity against human A549 cells assessed as cell viability at 300 uM after 48 hrs by MTT assay

[8] = test system: A549; assay: cells; assay type: functional; settings: Homo sapiens, A549, 48 h; remark: listed apart in the source
Description: Cytotoxicity against human A549 cells assessed as cell viability at 100 uM after 48 hrs by MTT assay

[9] = test system: A549; assay: cells; assay type: functional; settings: Homo sapiens, A549, 48 h; remark: listed apart in the source
[10] = test system: A549; assay: cells; assay type: functional; settings: Homo sapiens, A549, 48 h; remark: listed apart in the source
[11] = test system: A549; assay: cells; assay type: functional, cell-based; settings: Homo sapiens, A549, 48 h
Description: Cytotoxicity against human A549 cells assessed as cell viability after 48 hrs by MTT assay

Sequence of Matrix metalloproteinase-9 (P14780 whole entry): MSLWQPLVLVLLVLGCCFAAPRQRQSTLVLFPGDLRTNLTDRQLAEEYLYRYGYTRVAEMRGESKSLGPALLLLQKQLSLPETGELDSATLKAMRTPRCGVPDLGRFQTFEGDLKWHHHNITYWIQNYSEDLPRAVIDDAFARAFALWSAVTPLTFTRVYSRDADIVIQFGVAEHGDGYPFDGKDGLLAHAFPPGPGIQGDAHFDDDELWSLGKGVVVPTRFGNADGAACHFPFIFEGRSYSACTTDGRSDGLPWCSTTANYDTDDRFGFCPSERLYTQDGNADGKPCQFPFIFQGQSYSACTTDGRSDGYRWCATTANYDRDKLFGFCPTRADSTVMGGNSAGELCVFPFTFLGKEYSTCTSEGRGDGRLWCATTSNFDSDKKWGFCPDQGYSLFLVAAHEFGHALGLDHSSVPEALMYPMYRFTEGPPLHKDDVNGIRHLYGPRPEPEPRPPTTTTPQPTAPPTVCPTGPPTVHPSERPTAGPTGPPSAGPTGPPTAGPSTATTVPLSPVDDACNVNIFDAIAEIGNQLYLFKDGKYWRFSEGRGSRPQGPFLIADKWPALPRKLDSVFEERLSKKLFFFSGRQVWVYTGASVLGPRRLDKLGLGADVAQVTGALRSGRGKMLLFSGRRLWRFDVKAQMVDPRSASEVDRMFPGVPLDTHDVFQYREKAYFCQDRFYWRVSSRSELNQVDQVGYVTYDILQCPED

Compound | IC50 [1] [µM] | IC50 [3] [µM] | IC50 [4] [µM] | IC50 [5] [µM] | IC50 [6] [µM] | IC50 [11] [µM] | inhibition at 50 µM [2] [%] | viability at 300 µM [7] [%] | viability at 100 µM [8] [%] | viability at 100 µM [9] [%] | viability at 200 µM [10] [%]
CCCCCNC(=O)CC[C@H](NS(=O)(=O)c1ccc(-c2ccc(Br)cc2)cc1)C(=O)O | 5.49 |  |  |  |  |  |  |  |  |  | 
CCCCCNC(=O)CC[C@H](NS(=O)(=O)c1ccc(-c2ccccc2)cc1)C(=O)O | 5.72 | > 10 | 0.0523 | 0.059 | 1 |  | ≤ 52.1 | 61 | 80 |  | 
O=C(CC[C@H](NS(=O)(=O)c1ccc(-c2ccc(Br)cc2)cc1)C(=O)O)NCc1ccccc1 | 5.99 |  |  |  |  |  |  |  |  |  | 
CCCNC(=O)CC[C@H](NS(=O)(=O)c1ccc(-c2ccccc2)cc1)C(=O)O | 11.3 | > 10 |  | 0.0453 | 7.78 |  |  |  |  |  | 
CCCCCCNC(=O)CC[C@H](NS(=O)(=O)c1ccc(-c2ccccc2)cc1)C(=O)O | 5.88 | > 10 | 0.0961 | 0.0814 | 0.807 |  |  | 65 | 80 |  | 
CC(C)CNC(=O)CC[C@H](NS(=O)(=O)c1ccc(-c2ccccc2)cc1)C(=O)O | 8.17 | > 10 | 0.247 | 0.226 | 8.81 |  |  | 79 | 80 |  | 
O=C(CC[C@H](NS(=O)(=O)c1ccc(-c2ccccc2)cc1)C(=O)O)NCc1cc(C(F)(F)F)cc(C(F)(F)F)c1 | 6.74 | > 10 | 0.462 | 0.228 | 6.31 | 270 | ≤ 78.9 | 43 | 80 | 98.5 | 96.1
CC(C)NC(=O)CC[C@H](NS(=O)(=O)c1ccc(-c2ccccc2)cc1)C(=O)O | 7.41 |  |  |  |  |  |  |  |  |  | 
NC(=O)CC[C@H](NS(=O)(=O)c1ccc(-c2ccccc2)cc1)C(=O)O | 7.43 |  |  |  |  |  |  |  |  |  | 
O=C(CC[C@H](NS(=O)(=O)c1ccc(-c2ccccc2)cc1)C(=O)O)NCCc1ccccc1 | 7 | > 10 | 0.297 | 0.104 | 6.88 |  |  |  |  |  | 
CNC(=O)CC[C@H](NS(=O)(=O)c1ccc(-c2ccccc2)cc1)C(=O)O | 38.4 |  |  |  |  |  |  |  |  |  | 
CCNC(=O)CC[C@H](NS(=O)(=O)c1ccc(-c2ccccc2)cc1)C(=O)O | 8.71 |  |  |  |  |  |  |  |  |  | 
CC(C)(C)NC(=O)CC[C@H](NS(=O)(=O)c1ccc(-c2ccccc2)cc1)C(=O)O | 8.5 |  |  |  |  |  |  |  |  |  | 

These reach a lower IC50 [1]. Values come first.

IC50 [1] [µM] | IC50 [3] [µM] | IC50 [4] [µM] | IC50 [5] [µM] | IC50 [6] [µM] | IC50 [11] [µM] | Compound | inhibition at 50 µM [2] [%] | viability at 300 µM [7] [%] | viability at 100 µM [8] [%] | viability at 100 µM [9] [%] | viability at 200 µM [10] [%]
4.28 | > 10 | 0.296 | 0.0562 | 1.39 |  | O=C(CC[C@H](NS(=O)(=O)c1ccc(-c2ccccc2)cc1)C(=O)O)Nc1ccccc1 |  | 78 | 80 |  | 
2.09 |  |  |  |  |  | O=C(CC[C@H](NS(=O)(=O)c1ccc(-c2ccccc2)cc1)C(=O)O)NCc1ccc(Cl)cc1 |  |  |  |  | 
1.82 |  |  |  |  |  | COc1ccc(CNC(=O)CC[C@H](NS(=O)(=O)c2ccc(-c3ccccc3)cc2)C(=O)O)cc1 |  |  |  |  | 
1.16 | > 10 | 0.084 | 0.047 | 5.42 |  | O=C(CC[C@H](NS(=O)(=O)c1ccc(-c2ccccc2)cc1)C(=O)O)NCc1ccc(F)cc1 |  | 85 | 80 |  | 
0.88 | > 10 | 0.063 | 0.039 | 1.61 |  | O=C(CC[C@H](NS(=O)(=O)c1ccc(-c2ccccc2)cc1)C(=O)O)NCc1ccccc1Cl |  | 68 | 80 |  | 
0.715 | > 10 | 0.071 | 0.0596 | 4.64 |  | CCCCNC(=O)CC[C@H](NS(=O)(=O)c1ccc(-c2ccccc2)cc1)C(=O)O |  | 59 | 80 |  | 
0.636 | > 10 | 0.0732 | 0.0648 | 2.41 |  | O=C(CC[C@H](NS(=O)(=O)c1ccc(-c2ccccc2)cc1)C(=O)O)NC1CCCCC1 |  | 70 | 80 |  | 
0.492 | > 10 | 0.0532 | 0.0213 | 0.427 |  | O=C(CC[C@H](NS(=O)(=O)c1ccc(-c2ccccc2)cc1)C(=O)O)NCc1ccccc1 | ≤ 60.5 | 66 | 80 | 98.3 | 95.8
